Results: US20260097047A1, “Small molecule inhibitors of the ribosome biogenesis factor NVL2” (Board of Regents, The University of Texas System, priority 2023, published 2026)

tested on: HCT116 cells; assay: Cell viability assay (CellTiter-Glo, 72 hours) in HCT116 human colorectal cancer cells; format: cell-based; conditions: Homo sapiens, HCT-116; Table 5; HCT116, 72 hours; read-out: Activity
Summary of the method: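 Ten-point IC50 came from an asymmetric five-parameter fit of luminescence corrected to vehicle wells. ATP content was measured by CellTiter-Glo 72 h after dosing at 37 °C. Cells were seeded at 2,000/well the day before, with 0.5% DMSO in all wells.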

IC50	SMILES
< 500 nM	CCC/C=C/CN1C(=O)c2ccccc2Sc2cc(Nc3nccc4ccccc34)ccc21 [(E)-10-(Hex-2-en-1-yl)-7-(isoquinolin-1-ylamino)dibenzo[b,f][1,4]thiazepin-11 (10H)-one]
< 500 nM	CC#CCN1C(=O)c2ccccc2Sc2cc(Nc3cc(C)cnn3)ccc21 [10-(But-2-yn-1-yl)-7-((5-methylpyridazin-3-yl)amino)dibenzo[b,f][1,4]thiazepin-11 (10H)-one]
< 500 nM	CC#CCN1C(=O)c2ccc(C#N)cc2Sc2cc(Nc3ncc(C#N)cc3C)ccc21 [10-(But-2-yn-1-yl)-7-((5-cyano-3-methylpyridin-2-yl)amino)-11-oxo-10,11-dihydrodibenzo[b,f][1,4]thiazepine-3-carbonitrile]
< 500 nM	CC#CCN1C(=O)c2ccccc2Sc2cc(Nc3ncc(C#N)cc3C)ccc21 [6-((10-(But-2-yn-1-yl)-11-oxo-10,11-dihydrodibenzo[b,f][1,4]thiazepin-7-yl)amino)-5-methylnicotinonitrile]
< 500 nM	CC#CCN1C(=O)c2ccc(F)cc2Sc2cc(Nc3ncccc3C)ccc21 [10-(But-2-yn-1-yl)-3-fluoro-7-((3-methylpyridin-2-yl)amino)dibenzo[b,f][1,4]thiazepin-11 (10H)-one]
< 500 nM	CCC/C=C/CN1C(=O)c2ccccc2Sc2cc(Nc3ncc(C)cc3C)ccc21 [(E)-7-((3,5-Dimethylpyridin-2-yl)amino)-10-(hex-2-en-1-yl)dibenzo[b,f][1,4]thiazepin-11 (10H)-one]
< 500 nM	CC#CCN1C(=O)c2ccccc2Sc2cc(Nc3cccnn3)ccc21 [10-(But-2-yn-1-yl)-7-(pyridazin-3-ylamino)dibenzo[b,f][1,4]thiazepin-11 (10H)-one]

same assay, conditions: Homo sapiens, HCT-116; Table 6; HCT116, 72 hours; read-out: Activity

IC50	SMILES
< 500 nM	CC#CCN1C(=O)c2ccccc2Sc2cc(NC3CC4CCC3C4)ccc21 (stereo not drawn) [7-(Bicyclo[2.2.1]heptan-2-ylamino)-10-(but-2-yn-1-yl)dibenzo[b,f][1,4]thiazepin-11 (10H)-one]
1000 to 5000 nM	CC#CCN1C(=O)c2ccccc2Sc2cc(NCC3COC3)ccc21 [10-(But-2-yn-1-yl)-7-((oxetan-3-ylmethyl)amino)dibenzo[b,f][1,4]thiazepin-11 (10H)-one]

same assay, conditions: Table 3; HCT116, 72 hours; read-out: Activity

IC50	SMILES
< 500 nM	CC#CCN1C(=O)c2ccccc2Sc2cc(NC(=O)Nc3ccc4scnc4c3)cnc21
< 500 nM	CC#CCN1C(=O)c2ccccc2Sc2cc(NC(=O)Nc3ccc(OC)cc3)cnc21 [Table 3: —CH2CCMe; 4-MeOPh; CH/N]

same assay, conditions: Table 4; HCT116, 72 hours; read-out: Activity

IC50	SMILES
< 500 nM	CC#CCN1C(=O)c2ccccc2Sc2cc(NC(=S)N[C@H]3C[C@@H](OC)C3)ccc21 [Table 4: —CH2CCMe; cis-3-MeOcBu; CH]
< 500 nM	CC#CCN1C(=O)c2ccccc2Sc2cc(NC(=S)Nc3ccc(OC)cc3)ccc21 [Table 4: —CH2CCMe; 4-MeOPh; CH]
< 500 nM	CC#CCN1C(=O)c2ccccc2Sc2cc(NC(=S)NC3COC3)ccc21 [Table 4: —CH2CCMe; oxetan-3-yl; CH]

same assay, conditions: Table 5; HCT116, 72 hours; read-out: Activity

IC50	SMILES
< 500 nM	Cc1cnc(C)c(Nc2cnc3c(c2)Sc2ccccc2C(=O)N3CC#CCl)n1
< 500 nM	C#CCN1C(=O)c2ccccc2Sc2cc(Nc3nc(C)ccc3F)cnc21
< 500 nM	CC#CCN1C(=O)c2ccccc2Sc2cc(Nc3ncccc3F)cnc21
< 500 nM	CC#CCN1C(=O)c2ccccc2Sc2cc(Nc3ncc(C)cc3F)cnc21

SMILES	IC50
CC=CCN1C(=O)c2ccccc2Sc2cc(Nc3ncccc3F)ccc21	< 500 nM
O=C1c2ccccc2Sc2cc(Nc3cccnn3)cnc2N1CC#CCl	< 500 nM

same assay, conditions: Table 6; HCT116, 72 hours; read-out: Activity

IC50	SMILES
< 500 nM	CC#CCN1C(=O)c2ccccc2Cc2cc(NC34CC(OC)(C3)C4)ccc21
< 500 nM	CC#CCN1C(=O)c2ccccc2Sc2cc(NC3CC(OC)C3)cnc21 (stereo not drawn) [Table 6: —CH2CCMe; 3-MeOcBu; CH/N; S]
< 500 nM	C#CCN1C(=O)c2ccccc2Sc2cc(NC3CC(OC)C3)ccc21 (stereo not drawn) [Table 6: —CH2CCH; 3-MeOcBu; CH/CH; S]

same assay, conditions: Table 7; cell viability assay, CellTiter-Glo, 72 hours; scaffold drawing 42 with R^2, R^3, X/Y, Z; read-out: Activity

IC50	SMILES
500 to 1000 nM	COCCN1C(=O)c2ccccc2Sc2cc(NC(=O)c3ccc(Cl)c(OC)c3)ccc21 [—(CH2)2OMe; 3-MeO,4-ClPh; CH/CH; S]
1000 to 5000 nM	COCCN1C(=O)c2ccccc2Sc2cc(NC(=O)c3cccc(Cl)c3)ccc21 [—(CH2)2OMe; 3-ClPh; CH/CH; S]
< 500 nM	COCCN1C(=O)c2ccccc2Sc2cc(NC(=O)c3cccc(OC)c3)ccc21 [—(CH2)2OMe; 3-MeOPh; CH/CH; S]
< 500 nM	C=CCN1C(=O)c2ccc(F)cc2Sc2cc(NC(=O)c3ccc4scnc4c3)ccc21
1000 to 5000 nM	COCCN1C(=O)c2ccccc2Sc2cc(NC(=O)c3ccc(OC(F)F)c(F)c3)ccc21 [—(CH2)2OMe; 3-F,4-F2HCOPh; CH/CH; S]
1000 to 5000 nM	O=C(Nc1ccc2c(c1)Sc1ccccc1C(=O)N2CCO)c1ccoc1 [—(CH2)2OH; furan-3-yl; CH/CH; S]
1000 to 5000 nM	COCCN1C(=O)c2ccccc2Sc2cc(NC(C)=O)ccc21 [—(CH2)2OMe; Me; CH/CH; S]
1000 to 5000 nM	COCCN1C(=O)c2ccccc2Sc2cc(NC(=O)c3ccc4ncoc4c3)ccc21
1000 to 5000 nM	COCCN1C(=O)c2ccccc2Sc2cc(NC(=O)c3ccncn3)ccc21 [—(CH2)2OMe; pyrimidin-4-yl; CH/CH; S]

same assay, conditions: Table 8; analogs of scaffold drawing 43 defined by R^2, R^3, X/Y, W; read-out: Activity (IC50 class, cell viability assay)

IC50	SMILES
< 500 nM	CO[C@H]1C[C@H](C(=O)Nc2cnc3c(c2)Sc2ccccc2C(=O)N3CC#CCF)C1 [—CH2CCCH2F; trans-3-MeOcBu; CH/CH; N]
< 500 nM	CC#CCN1C(=O)c2ccc(Cl)cc2Sc2cc(NC(=O)[C@H]3C[C@H](OC)C3)ccc21 [—CH2CCMe; trans-3-MeOcBu; CCl/CH; CH]
< 500 nM	COCC=CC(=O)Nc1ccc2c(c1)Sc1ccccc1C(=O)N2CC#CC(F)(F)F [—CH2CCCF3; CH═CHCH2OMe; CH/CH; CH]
< 500 nM	CC#CCN1C(=O)c2ccccc2Sc2cc(NC(=O)C3CCCN3C)ccc21 (stereo not drawn)
< 500 nM	COCC=CC(=O)Nc1cnc2c(c1)Sc1ccccc1C(=O)N2CC#CC1CC1 [—CH2CC^cPr; CH═CHCH2OMe; CH/CH; N]
< 500 nM	C#CCN1C(=O)c2ccccc2Sc2cc(NC(=O)C3CC4(CC(=NO)C4)C3)ccc21 (stereo not drawn)
< 500 nM	C#CCN1C(=O)c2cc(F)ccc2Sc2cc(NC(=O)C3CC4(CC(=NOC)C4)C3)ccc21 (stereo not drawn)
< 500 nM	O=C(Nc1cnc2c(c1)Sc1ccccc1C(=O)N2CC#CC1CC1)C1CC2(COC2)C1
< 500 nM	CC#CCN1C(=O)c2cc(F)ccc2Sc2cc(NC(=O)C3CC3COC)ccc21 (stereo not drawn) [—CH2CCMe; trans-2-MeOCH2-cPr; CH/CF; CH]
< 500 nM	O=C1c2cc(F)ccc2Sc2cc(NC(=O)C34CC(O)(C3)C4)cnc2N1CC#CC1CC1
< 500 nM	CC#CCN1C(=O)c2ccccc2Sc2cc(NC(=O)CCC#N)ccc21 [—CH2CCMe; (CH2)2CN; CH/CH; CH]
< 500 nM	CO[C@H]1C[C@H](C(=O)Nc2ccc3c(c2)Sc2ccc(F)cc2C(=O)N3CC#CCl)C1 [—CH2CCCl; trans-3-MeOcBu; CH/CF; CH]
< 500 nM	CC#CCN1C(=O)c2ccc(Cl)cc2Sc2cc(NC(=O)[C@H]3C[C@@H](O)C3)ccc21 [—CH2CCMe; cis-3-OH-cBu; CCI/CH; CH]
< 500 nM	CC#CCN1C(=O)c2cc(F)ccc2Sc2cc(NC(=O)[C@@H]3C[C@H]3CO)cnc21 (relative stereo) [—CH2CCMe; trans-2-HOCH2-cPr; CH/CF; N]
< 500 nM	CC#CCN1C(=O)c2cc(F)ccc2Sc2cc(NC(=O)c3ccc4oc(=O)n(C)c4c3)ccc21
< 500 nM	O=C(Nc1ccc2c(c1)Sc1cc(Cl)ccc1C(=O)N2CC#CCl)C1CC2(CC(=NO)C2)C1 (stereo not drawn)
< 500 nM	O=C(Nc1ccc2c(c1)Sc1ccccc1C(=O)N2CC#CC1CC1)C1CC2(COC2)C1
< 500 nM	CC#CCN1C(=O)c2ccc(F)cc2Sc2cc(NC(=O)c3ccc4scnc4c3)ccc21
< 500 nM	CC#CCN1C(=O)c2ccccc2Sc2cc(NC(=O)[C@@H]3C[C@H]3C(=O)OC)ccc21 (relative stereo) [—CH2CCMe; trans-2-MeO2C-cPr; CH/CH; CH]
< 500 nM	CC#CCN1C(=O)c2cc(F)ccc2Sc2cc(NC(=O)c3cccc(OC)c3)ccc21 [—CH2CCMe; 3-MeOPh; CH/CF; CH]
< 500 nM	O=C(Nc1cnc2c(c1)Sc1cc(Cl)ccc1C(=O)N2CC#CCl)C1CC1CO (stereo not drawn) [—CH2CCCl; trans-2-HOCH2-cPr; CCl/CH; N]
< 500 nM	C#CCN1C(=O)c2cc(F)ccc2Sc2cc(NC(=O)[C@H]3C[C@H](OC)C3)ccc21 [—CH2CCH; trans-3-MeOcBu; CH/CF; CH]
< 500 nM	CC#CCN1C(=O)c2cc(F)ccc2Sc2cc(NC(=O)C3CC4(CC(=NO)C4)C3)ccc21 (stereo not drawn)
< 500 nM	CO[C@H]1C[C@@H](C(=O)Nc2cnc3c(c2)Sc2ccccc2C(=O)N3CC#CC(F)(F)F)C1 [—CH2CCCF3; cis-3-MeOcBu; CH/CH; N]
< 500 nM	CON=C1CC2(C1)CC(C(=O)Nc1cnc3c(c1)Sc1ccccc1C(=O)N3CC#CCl)C2 (stereo not drawn)
< 500 nM	CC#CCN1C(=O)c2ccccc2Sc2cc(NC(=O)C34CC(C#N)(C3)C4)ccc21

SMILES	IC50
CC#CCN1C(=O)c2ccc(Cl)cc2Sc2cc(NC(=O)C3CCCO3)cnc21 (stereo not drawn)	< 500 nM
CC#CCN1C(=O)c2ccccc2Sc2cc(NC(=O)C3CCCO3)ccc21 (stereo not drawn)	< 500 nM

same assay, conditions: Table 9; HCT116, 72 hours; read-out: Activity

IC50	SMILES
< 500 nM	COc1ccc(C(=O)Nc2ccc3c(c2)C(C)(O)c2ccccc2C(=O)N3CC#CCl)cc1 (stereo not drawn) [Table 9: —CH2CCCl; 4-MeOPh; CMeOH]
< 500 nM	COCCNC(=O)Nc1ccc2c(c1)C(C)c1ccccc1C(=O)N2CC#CC1CC1 (stereo not drawn) [Table 9: —CH2CC^cPr; NH(CH2)2OMe; CHMe]
< 500 nM	CC#CCN1C(=O)c2ccccc2Cc2cc(NC(=O)CC3COC3)ccc21 [Table 9: —CH2CCMe; (oxetan-3-yl)CH2; CH2]
< 500 nM	CC#CCN1C(=O)c2ccccc2Cc2cc(NC(=O)C34CC(OC)(C3)C4)ccc21

same assay, conditions: cell viability assay; Table 10 analogs of scaffold drawing 45 defined by R2, R3, X/Y, W; read-out: Activity

IC50	SMILES
< 500 nM	CO[C@H]1C[C@H](C(=O)Nc2cnc3c(c2)Sc2ccccc2C(=O)N3CC#CCF)C1 [—CH2CCCH2F; trans-3-MeOcBu; CH/CH; N]
< 500 nM	CC#CCN1C(=O)c2ccc(Cl)cc2Sc2cc(NC(=O)[C@H]3C[C@H](OC)C3)ccc21 [—CH2CCMe; trans-3-MeOcBu; CCl/CH; CH]
